{"source": "patent US12404526B2", "about": "“Enhancing agents for improved cell transfection and/or rAAV vector production” (priority 2017, dated 2025)", "tested_on": "HEK 293F cells", "assay": "rAAV-FVIII vector production by PEI-transfected HEK 293F cells with enhancing agents, vector genome titer by Q-PCR", "type": "cell-based, human", "procedure": "Cell Culture: FreeStyle™ 293F (HEK 293F) cells purchased from Thermo Fisher Scientific (R79007) were cultured in FreeStyle™ F17 (F17) expression medium (Thermo Fisher Scientific, A1383501) supplemented with 1× GlutaMAX™ (Thermo Fisher Scientific, 35050-061) and 1× Antibiotic-antimycotic (Thermo Fisher Scientific, 15240). Cells were cultured in spinner flasks (Corning, 3152 or 3153), shake flask (Corning 431143, or 431145) or bioreactors. For spinner/shake flask, cells were cultured at 37° C. incubator with 170 rpm agitation and a humidified atmosphere of 8% CO2; for bioreactors (Eppendorf, DASGIP Parallel Bioreactor system, glass vessels and single use vessels), cell culture was controlled by programed parameters, (DO 40%, pH 7.2, agitation at 130 rpm, 150 rpm or 170 rpm). Typically, cells were seeded at 0.25-0.5×10^6/mL, subcultured every 2-3 days by adding fresh cell culture medium when cell density reached approximately 2-3×10^6/mL. Cell density and viability were determined using a Vi-cell™ XR cell viability Analyzer (Beckman Coulter).\nPlasmids: Three plasmids were used to produce recombinant adeno-associated viral vectors (rAAV): 1) Transgene plasmid containing hFVIII flanked by ITRs, 2) A packaging plasmid containing rep and cap genes, 3) An adenoviral helper plasmid containing adenovirus E2, E4 and VARNA genes. All plasmids were purchased from and manufactured by Aldevron.\nPreparation of PEI solutions: Linear polyethylenimine (PEI) “Max” 40 KDa (Polysciences, 24765-2, hydrochloride salt of the linear PEI 25 KDa) was used as transfection reagent. For transfection optimization studies, PEI “Max” was dissolved in 5 mM Tris to make a 0.5 mg/mL solution and the solution was adjusted to different pH, including pH7.0, 7.1, 7.2, 7.3, 7.4, 7.6, 7.8, or 8.0. After several studies, PEI solution at pH 7.1 was selected for all studies if not specified because of the best transfection and rAAV production.\nUsing enhancing agents in PEI-mediated transfection: The potential transfection enhancing agents evaluated for their effect on transfection and rAAV production were enhancer 1 and 2 in ExpiFectamine™ 293 Transfection Kit (Thermo Fisher Scientific, A14525), P3000 reagent in Lipofectamine® 3000 Transfection Kit (Thermo Fisher Scientific, L3000015), enhancer in Effectene™ Transfection Reagent Kit (Qiagen, 301427). Also studied were a variety of compounds including valproic acid, etoposide, teniposide, siomycin A and vorinostat to test their effectiveness on PEI cell transfection and rAAV production.\nHEK 293F cells were grown in F17 medium plus 1× GlutaMAX™ Supplement and 1× Antibiotic-antimycotic in spinner flasks or shake flasks. The day before transfection, cells were seeded at 0.5-2×10^6 cells/mL by adding fresh medium. After 24 hr, cells were transfected at a cell density of 1-4×10^6 cells/mL. Three plasmids for transfection, hFVIII, Rep/cap, Ad2 helper, were used at a molar ratio of 1:1:1, 0.5:1:1 and 1:2:2, and at weight ratio of 0.75:0.75:0.75, 1:1:1 and 1.5:1.5:1.5. The total DNA amount used for transfection was from 0.5 to 4.2 μg per mL of cell culture volume. PEI/DNA complex was prepared with different weight ratios of PEI and DNA, at 1:1, 1.5:1, 2:1, 2.5:1 and 3:1, incubated at room temperature for 1, 5, 10, 15, 20, 25 and 30 minutes, then the DNA/PEI complexes were added to the cell culture. Free PEI (without DNA) from 0.5 to 5.6 μg/mL was added to the cell culture immediately after DNA/PEI complexes. Enhancing agents were added directly to the cells at the time of transfection or 24 hr before transfection or 16-18 hr after transfection. Different amounts of enhancing agents were studied. Samples, including cells and cell culture media, were taken at 48 and 72 hr post transfection for cell count and cell viability and cell culture was harvested at 72 hr post transfection. […]", "data": [{"smiles": "CCCC(CCC)C(=O)O", "note": "[valproic acid]", "values": [{"measurement": "rAAV vector production, fold higher than in the absence of valproic acid", "setting": "2 mM at transfection, spinner flask, 1.2 μg/mL DNA, PEI/DNA 2:1, 1.5 μg/mL free PEI, FIG. 7", "value": 10, "unit": "fold"}, {"measurement": "AAV vector production at increased valproic acid concentrations", "setting": "1L bioreactor culture, 4 mM or higher, such as 5-8 mM, FIG. 8", "value": "improved"}, {"measurement": "AAV vector production, fold higher compared with 2 mM of valproic acid", "setting": ">4 mM (up to 8 mM) at transfection, 1 L bioreactor, PEI/DNA 2.5, FIG. 8", "value": "1.2-1.8 fold"}, {"measurement": "effect on rAAV productivity (compound screen)", "setting": "added at transfection, PEI-mediated transfection", "value": "significantly increased"}, {"measurement": "rAAV-FVIII vector titer, fold increase compared to that without any enhancers", "setting": "optimized PEI-mediated transfection, serum-free suspension culture, 0.25-10 mM tested, FIG. 7", "value": "around 10 fold"}, {"measurement": "rAAV productivity level compared with enhancer 1 and 2", "setting": "optimized PEI-mediated transfection, serum-free suspension culture, FIG. 7", "value": "same rAAV productivity level or higher"}, {"measurement": "rAAV vector productivity, fold higher than the currently reported production protocol using similar technologies", "setting": "used alone in the optimized PEI-based transfection method", "value": "about 10 fold"}]}]}
